These results are taken from patent US20250135028A1, “TUNABLE POLYMERIC NANOPARTICLES FOR TARGETED AND SUSTAINED DELIVERY OF GLYCOPEPTIDE ANTIBIOTICS” (Insmed Incorporated, priority 2021, published 2025).

Series [1] in a line: Drug loading and encapsulation efficiency of drug loaded PNPs comprising pGlu(0.6C10)-PEG (HPLC). The series is classed as physicochemical. As to conditions: 5 mg drug. An excerpt: To assess the ability of pGlu(0.6C10)-PEG to load positively charged antibiotics in the form of PNPs, we selected vancomycin and RV94 as the antibiotic drug payload in a first study (study 1) (Table 5), and additionally included oritavancin and RV40 as the antibiotic drug payload in a second study (study 2) (Table 6). The polymers we used for loading and encapsulating the antibiotics were PLA-PEG (A) (Nanosoft Polymers, SKU: 2693), pGlu-PEG (B) (Nanosoft Polymers, SKU: 2917), and pGlu(0.6C10)-PEG (C) (FIG. 10).
We prepared the drug loaded PNPs by using 20 mg of polymers and 5 mg of drug (FIG. 10). Specifically, polymers (20 mg) and drug (5 mg) were dissolve in 1 ml organic solvent mixture (DMSO: acetonitrile=1:1). The solution was injected into 20 ml deionized water stirred with a magnetic stirring bar. The nanoparticles were washed using Amicon filter (100k cut-off) twice and resuspended in deionized water. Drug loading in nanoparticle formulation was determined by HPLC with a WATERS™ T3 column. Acetonitrile/water was used as the mobile phase, and the wavelength of the UV detector was set at 281 nm.
Drug loading is equal to mass of drug (mg) after wash/(mass of drug (mg) after wash+mass of polymer input (i.e., 20 mg))*100%.
EE is equal to mass of drug (mg) after wash/mass of drug input (i.e., 5 mg)*100%.

Series [2] can be described thus: Drug loading and encapsulation efficiency of drug loaded PNPs comprising pGlu(0.6C10) (HPLC). The series is classed as physicochemical. The following applies: 2.5 mg drug. The source says:
To assess the ability of pGlu(0.6C10) to load positively charged antibiotics in the form of PNPs, we selected vancomycin, oritavancin, RV40 and RV94 as the drug payload. Vancomycin was chosen as a non-lipoglycopeptide control and the other three payloads were lipoglycopeptides. The polymers we used for loading and encapsulating the antibiotics were PLA(10K)-PEG(2K) (A) obtained from Nanosoft Polymers (Winston-Salem, NC, USA; SKU: 2693), pGlu (D) also obtained from Nanosoft Polymers (SKU: 10069), and pGlu(0.6C10) (E) (FIG. 4).
We prepared the drug loaded PNPs by using 10 mg of polymers and 2.5 mg of drug (FIG. 4). Specifically, polymers (10 mg) and drug (2.5 mg) were dissolved in 1.2 ml organic solvent mixture (DMSO: acetonitrile=0.5:0.7). The solution was injected into 10 ml deionized water stirred with a magnetic stirring bar. 1.1 ml 10×PBS solution was added to suspend nanoparticles in 1×PBS solution. The nanoparticles were washed using Amicon filter (100k cut-off) twice and resuspended in PBS. Drug loading in nanoparticle formulation was determined by HPLC with a WATERS™ T3 column. Acetonitrile/water was used as the mobile phase, and the wavelength of the UV detector was set at 281 nm.
EE is equal to mass of drug (mg) after wash/mass of drug input (i.e., 2.5 mg) *100%. With EE calculated as such, an EE of over 100% may be obtained on certain occasions due to standard error within the analytical measurement and represents complete encapsulation (i.e., 100% EE).

The nature of series [3]: Pharmacokinetic study of oritavancin-loaded PNPs in rat osteomyelitis model (plasma and tibia, LC-MS/MS). The series is classed as in vivo. As to conditions: osteomyelitis rats, 6 mg/kg intravenous. An excerpt: A rat model of bacterial osteomyelitis of the tibia was generated via intraosseous injection of MRSA ATCC 43300 at a target challenge dose of 7 log10 CFU of the bacteria per rat. Briefly, rats were anaesthetized by isoflurane and the infection was initiated via injection of the bacteria through the upper condyle of the right tibia into the cancellous bone marrow of a rat. The inoculation was made on the anterior surface of the tibia. The area was located by running a ½ inch 27-gauge needle against the skin, along the anterior crest of the tibia. The needle slipped over the tip of the tuberosity, which was located between the medial and lateral condyles. A rough depression could be felt with the tip of the needle. The patella tendon (silver in color) connected at this point. Once identified, the needle was pushed into the metaphysis using slight pressure and rotating motion. The needle was removed and replaced with a new ½ inch 27 gauge needle, and 30 μL of bacteria was inoculated into the bone marrow cavity. The needle was removed and the animal was allowed to recover from anesthesia.
Three weeks (21 days) after the initiation of the bacterial infection, the osteomyelitis rats were divided into three treatment groups, with five rats in each group. […] The concentrations of oritavancin in the plasma and tibia samples were quantified using LC-MS/MS.

Setting [4] is: study 1, PLA-PEG (A) 10 mg + pGlu(0.6C10)-PEG (C) 10 mg.
Where [5] appears, read: study 1, PLA-PEG (A) 10 mg + pGlu-PEG (B) 10 mg.
Where [6] appears, read: study 1, PLA-PEG (A) 20 mg only.
Setting [7] is: study 2, PLA-PEG (A) 10 mg + pGlu(0.6C10)-PEG (C) 10 mg.
Setting [8] is: study 2, PLA-PEG (A) 10 mg + pGlu-PEG (B) 10 mg.
Where [9] appears, read: PNP with PLA-PEG (A) 5 mg + pGlu (D) 5 mg.
[10] abbreviates: PNP with PLA-PEG (A) 5 mg + pGlu(0.6C10) (E) 5 mg.
Where [11] appears, read: PNP with PLA-PEG (A) as only polymer, 10 mg polymer.
The mark [12] stands for this setting: drug payload only, no polymer (N/A).

As to `CN[C@H](CC(C)C)C(=O)N[C@H]1C(=O)N[C@@H](CC(N)=O)C(=O)N[C@H]2C(=O)N[C@H]3C(=O)N[C@H](C(=O)N[C@H](C(=O)O)c4cc(O)cc(O)c4-c4cc3ccc4O)[C@H](O)c3ccc(c(Cl)c3)Oc3cc2cc(c3O[C@@H]2O[C@H](CO)[C@@H](O)[C@H](O)[C@H]2O[C@H]2C[C@](C)(N)[C@H](O)[C@H](C)O2)Oc2ccc(cc2Cl)[C@H]1O` [Vac, vancomycin], the Drug loading in series [1] (setting [4]) turned out to be 2.7%; in series [1] (setting [5]) it was 0.0%; in series [1] (setting [6]), 0.0%; in series [1] (setting [7]), 2.4%; in series [1] (setting [8]) it was 0.0%; in series [2] (setting [9]), 0.0%. Further, the Drug loading in series [2] (setting [10]) was 0.1%; in series [2] (setting [11]) it was 0.0%; in series [2] (setting [12]) it was 0.0%. In addition, the “Encapsulation efficiency (EE)” value in series [1] (setting [4]) was determined as 18.6%; in series [1] (setting [5]), 0.0%; in series [1] (study 1, PLA-PEG (A) 10 mg + pGlu-PEG (B) 10 mg, listed as vancomycin), 0.0%; in series [1] (setting [6]), 0.0%; in series [1] (study 1, PLA-PEG (A) 20 mg only, listed as vancomycin) it was 0.0%; in series [1] (setting [7]), 9.8%. Also, the “Encapsulation efficiency (EE)” value in series [1] (setting [8]) is reported as 0.2%; in series [2] (setting [9]), 0.1%; in series [2] (PNP with PLA-PEG (A) 5 mg + pGlu (D) 5 mg, listed as vancomycin), 0.1%; in series [2] (setting [10]), 0.5%; in series [2] (PNP with PLA-PEG (A) 5 mg + pGlu(0.6C10) (E) 5 mg, listed as vancomycin) it was 0.5%; in series [2] (setting [11]) it was 0.2%. The “Encapsulation efficiency (EE)” value in series [2] (PNP with PLA-PEG (A) as only polymer, 10 mg polymer, listed as vancomycin) was 0.2%; in series [2] (setting [12]), 0.0%.

Regarding `CN[C@H](CC(C)C)C(=O)N[C@H]1C(=O)N[C@@H](CC(N)=O)C(=O)N[C@H]2C(=O)N[C@H]3C(=O)N[C@H](C(=O)N[C@H](C(=O)O)c4cc(O)cc(O)c4-c4cc3ccc4O)[C@H](O[C@H]3C[C@](C)(N)[C@@H](O)[C@H](C)O3)c3ccc(c(Cl)c3)Oc3cc2cc(c3O[C@@H]2O[C@H](CO)[C@@H](O)[C@H](O)[C@H]2O[C@H]2C[C@](C)(NCc3ccc(-c4ccc(Cl)cc4)cc3)[C@@H](O)[C@H](C)O2)Oc2ccc(cc2Cl)[C@H]1O` [Ori, oritavancin], the “Accumulation of oritavancin in infected tibia compared to uninfected tibia” value in series [3] (24 h post-injection) is “preferential accumulation of oritavancin in the infected tibia”. For the same molecule, in series [3] (up to 4 hours post-injection), the “Plasma concentrations of oritavancin” value is “comparable and lower plasma concentrations of oritavancin”. Also, the Drug loading in series [1] (setting [7]) came out at 13.4%; in series [1] (setting [8]) it was 10.6%; in series [2] (setting [9]), 8.7%; in series [2] (setting [10]), 12.3%; in series [2] (setting [11]), 2.3%; in series [2] (setting [12]), 0.0%. In addition, the “Encapsulation efficiency (EE)” value in series [1] (setting [7]) is 68.1%; in series [1] (setting [8]), 41.0%; in series [2] (setting [9]), 39.3%; in series [2] (PNP with PLA-PEG (A) 5 mg + pGlu (D) 5 mg, listed as oritavancin), 39.3%; in series [2] (setting [10]), 60.6%; in series [2] (PNP with PLA-PEG (A) 5 mg + pGlu(0.6C10) (E) 5 mg, listed as oritavancin), 60.6%. The “Encapsulation efficiency (EE)” value came out at 9.8% in series [2] (setting [11]); 9.8% in series [2] (PNP with PLA-PEG (A) as only polymer, 10 mg polymer, listed as oritavancin); 0.0% in series [2] (setting [12]).

On to `CCCCCCCCCCNC(=O)CNC1(C)CC(OC2C(Oc3c4cc5cc3Oc3ccc(cc3Cl)C(O)C3NC(=O)C(NC(=O)C5NC(=O)C(CC(N)=O)NC(=O)C(NC(=O)C(CC(C)C)NC)C(O)c5ccc(c(Cl)c5)O4)c4ccc(O)c(c4)-c4c(O)cc(O)cc4C(C(=O)O)NC3=O)OC(CO)C(O)C2O)OC(C)C1O` (stereo not shown) [RV94], for which the Drug loading worked out at 16.7% in series [1] (setting [4]); 13.6% in series [1] (setting [5]); 0.9% in series [1] (setting [6]); 17.5% in series [1] (setting [7]); 13.2% in series [1] (setting [8]); 3.5% in series [2] (setting [9]). The Drug loading in series [2] (setting [10]) worked out at 20.9%; in series [2] (setting [11]) it was 2.8%; in series [2] (setting [12]), 1.3%. The “Encapsulation efficiency (EE)” value was 88.4% in series [1] (setting [4]); 70.1% in series [1] (setting [5]); 4.0% in series [1] (setting [6]); 92.7% in series [1] (setting [7]); 59.8% in series [1] (setting [8]); 12.9% in series [2] (setting [9]). The “Encapsulation efficiency (EE)” value was determined as 107.2% in series [2] (setting [10]), 10.4% in series [2] (setting [11]) and 4.2% in series [2] (setting [12]).

Consider `CCCCCCCCCCNCCNC1(C)CC(OC2C(Oc3c4cc5cc3Oc3ccc(cc3Cl)C(O)C(NC(=O)C(CC(C)C)NC)C(=O)NC(CC(N)=O)C(=O)NC5C(=O)NC3C(=O)NC(C(=O)CC(C(=O)O)c5cc(O)cc(O)c5-c5cc3ccc5O)C(O)c3ccc(c(Cl)c3)O4)OC(CO)C(O)C2O)OC(C)C1O` (stereo not shown) [RV40], for which the Drug loading was 6.4% in series [1] (setting [7]); 6.7% in series [1] (setting [8]); 3.1% in series [2] (setting [9]); 15.0% in series [2] (setting [10]); 1.9% in series [2] (setting [11]); 0.0% in series [2] (setting [12]). Also, the “Encapsulation efficiency (EE)” value in series [1] (setting [7]) was found to be 45.5%; in series [1] (setting [8]), 33.2%; in series [2] (setting [9]) it was 15.0%; in series [2] (setting [10]) it was 100.7%; in series [2] (setting [11]) it was 7.0%; in series [2] (setting [12]), 0.0%.
